IC50 data for 21 compounds are collected here from patent US20230131899A1, “INHIBITORS OF MICROBIALLY INDUCED AMYLOID” (Axial Therapeutics, Inc., priority 2020, published 2023).

pIC50: −log10 of the molar value. Like-named read-outs stand apart in the source and are kept apart here. Some results are limits rather than exact numbers.

The subject of the test is CsgA gene expression (csgBAC promoter-GFP reporter) in E. coli UTI89. Description: In vitro live cell fluorescent reporter assay of CsgA transcription (Reporter Assay). In kind it is cell-based. Particulars: Escherichia coli; for pIC50: read-out: Reporter Assay Abs IC50 (activity range), median Abs IC50 in the CsgA reporter assay, class symbol; for IC50: read-out: Reporter Assay Abs IC50 (μM), median Abs IC50 in the CsgA reporter assay, N/A = maximum expression reduction is <50% of control. In short, it runs like this: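 Chromosomal single-copy csgBAC promoter–GFP reporter in E. coli UTI89, started at OD600 0.003 in YESCA broth with compound (0.14–100 μM, 1% DMSO), 20 h at 27 °C. GFP (ex 485/em 525 nm) background-subtracted and normalized to vehicle; IC50 and X[50] from curve fits. OD600 tracked growth effects.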

For the compound `CCCN1CC(C(=O)O)n2c(c(-c3cccc(C(F)(F)F)c3)c(Cc3cccc4ccccc34)c(NC3CCCC3)c2=O)S1(=O)=O` (stereo not drawn) [Compound 126, 7-(cyclopentylamino)-8-(naphthalen-1-ylmethyl)-6-oxo-2-propyl-9-(3-(trifluoromethyl)phenyl)-3,4-dihydro-2H,6H-pyrido[1,2-e][1,2,5]thiadiazine-4-carboxylic acid 1,1-dioxide], the pIC50 was 5.35 to 5.89 and the half-inhibitory concentration (IC50) was 1.9 µM.

`CCN1CC(C(=O)O)n2c(c(-c3cccc(C(F)(F)F)c3)c(Cc3cccc4ccccc34)cc2=O)S1(=O)=O` (single isomer, unassigned) [Compound 015a, 2-ethyl-8-(naphthalen-1-ylmethyl)-6-oxo-9-(3-(trifluoromethyl)phenyl)-3,4-dihydro-2H,6H-pyrido[1,2-e][1,2,5]thiadiazine-4-carboxylic acid 1,1-dioxide]: the pIC50 is less than 5.00 and the IC50 amounted to 21.7 µM.

With `O=C(O)C1CSc2c(-c3cccc(C(F)(F)F)c3)c(Cc3cccc4ccccc34)cc(=O)n21` (racemic) [Compound 011, 7-(naphthalen-1-ylmethyl)-5-oxo-8-(3-(trifluoromethyl)phenyl)-2,3-dihydro-5H-thiazolo[3,2-a]pyridine-3-carboxylic acid], the pIC50 is 5.00 to 5.34 and the 50% inhibitory concentration (IC50) was 5.8 µM.

As to `CN(C)CCN1CC(C(=O)O)n2c(c(-c3cccc(C(F)(F)F)c3)c(Cc3cccc4ccccc34)cc2=O)S1(=O)=O` (stereo not drawn) [Compound 017, 2-(2-(dimethylamino)ethyl)-8-(naphthalen-1-ylmethyl)-6-oxo-9-(3-(trifluoromethyl)phenyl)-3,4-dihydro-2H,6H-pyrido[1,2-e][1,2,5]thiadiazine-4-carboxylic acid 1,1-dioxide], the pIC50 was 5.35 to 5.89 and the 50% inhibitory concentration (IC50) came to 2.7 µM.

As to `CC(C)N1CC(C(=O)O)n2c(c(-c3cccc(C(F)(F)F)c3)c(Cc3cccc4ccccc34)c(NC3CCCC3)c2=O)S1(=O)=O` (stereo not drawn) [Compound 123, 7-(cyclopentylamino)-2-isopropyl-8-(naphthalen-1-ylmethyl)-6-oxo-9-(3-(trifluoromethyl)phenyl)-3,4-dihydro-2H,6H-pyrido[1,2-e][1,2,5]thiadiazine-4-carboxylic acid 1,1-dioxide], the pIC50 was 5.35 to 5.89 and the half-maximal inhibitory concentration (IC50) amounted to 3.3 µM.

With `O=C(O)[C@H]1CS(=O)(=O)c2c(-c3cccc(C(F)(F)F)c3)c(Cc3cccc4ccccc34)cc(=O)n21` (single isomer, unassigned) [Compound 010b, 7-(naphthalen-1-ylmethyl)-5-oxo-8-(3-(trifluoromethyl)phenyl)-2,3-dihydro-5H-thiazolo[3,2-a]pyridine-3-carboxylic acid 1,1-dioxide], the negative-log IC50 (pIC50) is less than 5.00 and the IC50 is 58.5 µM.

In the case of `COc1ccc(CN2C[C@@H](C(=O)O)n3c(c(-c4cccc(C(F)(F)F)c4)c(Cc4cccc5ccccc45)cc3=O)S2(=O)=O)cc1` (single isomer, unassigned) [Compound 026a], the pIC50 was 5.35 to 5.89 and the 50% inhibitory concentration (IC50) is 2 µM.

`CCc1c(Cc2cccc3ccccc23)c(-c2cccc(C(F)(F)F)c2)c2n(c1=O)C(C(=O)O)CN(C1CCCCC1)S2(=O)=O` (stereo not drawn) [Compound 116, 2-cyclohexyl-7-ethyl-8-(naphthalen-1-ylmethyl)-6-oxo-9-(3-(trifluoromethyl)phenyl)-3,4-dihydro-2H,6H-pyrido[1,2-e][1,2,5]thiadiazine-4-carboxylic acid 1,1-dioxide]: the pIC50 was 5.35 to 5.89 and the IC50 came to 1.5 µM.

For the compound `O=C(O)CN1CC(C(=O)O)n2c(c(-c3cccc(C(F)(F)F)c3)c(Cc3cccc4ccccc34)cc2=O)S1(=O)=O` (stereo not drawn) [Compound 018, 2-(carboxymethyl)-8-(naphthalen-1-ylmethyl)-6-oxo-9-(3-(trifluoromethyl)phenyl)-3,4-dihydro-2H,6H-pyrido[1,2-e][1,2,5]thiadiazine-4-carboxylic acid 1,1-dioxide], the negative-log IC50 (pIC50) is less than 5.00 and the IC50 was 148 µM.

As to `C=CCCN1CC(C(=O)O)n2c(c(-c3cccc(C(F)(F)F)c3)c(Cc3cccc4ccccc34)cc2=O)S1(=O)=O` (stereo not drawn) [Compound 024, 2-(but-3-en-1-yl)-8-(naphthalen-1-ylmethyl)-6-oxo-9-(3-(trifluoromethyl)phenyl)-3,4-dihydro-2H,6H-pyrido[1,2-e][1,2,5]thiadiazine-4-carboxylic acid 1,1-dioxide], the pIC50 was 5.00 to 5.34 and the concentration for half-maximal inhibition (IC50) was 9.9 µM.

As to `O=C(O)C1CSc2c(-c3cccc(C(F)(F)F)c3)c(Cc3cccc4ccccc34)cc(=O)n21` (single isomer, unassigned) [Compound 011a, 7-(naphthalen-1-ylmethyl)-5-oxo-8-(3-(trifluoromethyl)phenyl)-2,3-dihydro-5H-thiazolo[3,2-a]pyridine-3-carboxylic acid], the negative-log IC50 (pIC50) is 5.35 to 5.89 and the IC50 was determined as 4.4 µM.

Turning to `O=C(O)C1CN(CCCO)S(=O)(=O)c2c(-c3cccc(C(F)(F)F)c3)c(Cc3cccc4ccccc34)c(NC3CCCC3)c(=O)n21` (stereo not drawn) [Compound 120, 7-(cyclopentylamino)-2-(3-hydroxypropyl)-8-(naphthalen-1-ylmethyl)-6-oxo-9-(3-(trifluoromethyl)phenyl)-3,4-dihydro-2H,6H-pyrido[1,2-e][1,2,5]thiadiazine-4-carboxylic acid 1,1-dioxide], the pIC50 was 5.35 to 5.89 and the IC50 came to 3.1 µM.

Turning to `CN1CC(C(=O)O)n2c(c(-c3cccc(C(F)(F)F)c3)c(Cc3cccc4ccccc34)c(N)c2=O)S1(=O)=O` (stereo not drawn) [Compound 074, 7-amino-2-methyl-8-(naphthalen-1-ylmethyl)-6-oxo-9-(3-(trifluoromethyl)phenyl)-3,4-dihydro-2H,6H-pyrido[1,2-e][1,2,5]thiadiazine-4-carboxylic acid 1,1-dioxide], the negative logarithm of the IC50 (pIC50) was less than 5.00 and the IC50 amounted to 29.2 µM.

For the compound `CCCN1CC(C(=O)O)n2c(c(-c3cccc(C(F)(F)F)c3)c(Cc3cccc4ccccc34)c(NC3CCOCC3)c2=O)S1(=O)=O` (stereo not drawn) [Compound 127, 8-(naphthalen-1-ylmethyl)-6-oxo-2-propyl-7-((tetrahydro-2H-pyran-4-yl)amino)-9-(3-(trifluoromethyl)phenyl)-3,4-dihydro-2H,6H-pyrido[1,2-e][1,2,5] thiadiazine-4-carboxylic acid 1,1-dioxide], the pIC50 is 5.00 to 5.34 and the concentration for half-maximal inhibition (IC50) stood at 4.8 µM.

Take `O=C(O)C1CN(CCCCCO)S(=O)(=O)c2c(-c3cccc(C(F)(F)F)c3)c(Cc3cccc4ccccc34)c(NC3CCCC3)c(=O)n21` (stereo not drawn) [Compound 122, 7-(cyclopentylamino)-2-(5-hydroxypentyl)-8-(naphthalen-1-ylmethyl)-6-oxo-9-(3-(trifluoromethyl)phenyl)-3,4-dihydro-2H,6H-pyrido[1,2-e][1,2,5]thiadiazine-4-carboxylic acid 1,1-dioxide]: the pIC50 was 5.35 to 5.89 and the concentration for half-maximal inhibition (IC50) was determined as 1.9 µM.

In the case of `NC(=O)CN1CC(C(=O)O)n2c(c(-c3cccc(C(F)(F)F)c3)c(Cc3cccc4ccccc34)cc2=O)S1(=O)=O` (stereo not drawn) [Compound 028, 2-(2-amino-2-oxoethyl)-8-(naphthalen-1-ylmethyl)-6-oxo-9-(3-(trifluoromethyl)phenyl)-3,4-dihydro-2H,6H-pyrido[1,2-e][1,2,5]thiadiazine-4-carboxylic acid 1,1-dioxide], the pIC50 was less than 5.00 and the half-inhibitory concentration (IC50) amounted to 18.2 µM.

Consider `Nc1c(Cc2cccc3ccccc23)c(-c2cccc(C(F)(F)F)c2)c2n(c1=O)C(C(=O)O)CS2(=O)=O` (stereo not drawn) [Compound 023, 6-amino-7-(naphthalen-1-ylmethyl)-5-oxo-8-(3-(trifluoromethyl)phenyl)-2,3-dihydro-5H-thiazolo[3,2-a]pyridine-3-carboxylic acid 1,1-dioxide], for which the pIC50 was less than 5.00 and the IC50 came out at 19.6 µM.

As for `O=C(O)C1CSc2c(-c3cccc(C(F)(F)F)c3)c(Cc3cccc4ccccc34)nc(=O)n21` (stereo not drawn) [Compound 022, 7-(naphthalen-1-ylmethyl)-5-oxo-8-(3-(trifluoromethyl)phenyl)-2,3-dihydro-5H-thiazolo[3,2-c]pyrimidine-3-carboxylic acid], the pIC50 is 5.35 to 5.89 and the concentration for half-maximal inhibition (IC50) was 4.1 µM.

As to `CN(C)Cc1c(Cc2cccc3ccccc23)c(-c2cccc(C(F)(F)F)c2)c2n(c1=O)C(C(=O)O)CS2` (stereo not drawn) [Compound 075, 6-((dimethylamino)methyl)-7-(naphthalen-1-ylmethyl)-5-oxo-8-(3-(trifluoromethyl)phenyl)-2,3-dihydro-5H-thiazolo[3,2-a]pyridine-3-carboxylic acid], the negative logarithm of the IC50 (pIC50) is 5.00 to 5.34 and the IC50 is 5.6 µM.

Take `O=C(O)C1CN(CCCCO)S(=O)(=O)c2c(-c3cccc(C(F)(F)F)c3)c(Cc3cccc4ccccc34)c(NC3CCCC3)c(=O)n21` (stereo not drawn) [Compound 121, 7-(cyclopentylamino)-2-(4-hydroxybutyl)-8-(naphthalen-1-ylmethyl)-6-oxo-9-(3-(trifluoromethyl)phenyl)-3,4-dihydro-2H,6H-pyrido[1,2-e][1,2,5]thiadiazine-4-carboxylic acid 1,1-dioxide]: the pIC50 was 5.35 to 5.89 and the 50% inhibitory concentration (IC50) worked out at 2 µM.

As for `CCCCCN1CC(C(=O)O)n2c(c(-c3cccc(C(F)(F)F)c3)c(Cc3cccc4ccccc34)cc2=O)S1(=O)=O` (racemic) [Compound 025, 8-(naphthalen-1-ylmethyl)-6-oxo-2-pentyl-9-(3-(trifluoromethyl)phenyl)-3,4-dihydro-2H,6H-pyrido[1,2-e][1,2,5]thiadiazine-4-carboxylic acid 1,1-dioxide], the negative logarithm of the IC50 (pIC50) is 5.35 to 5.89 and the IC50 was 1.9 µM.
